In patent publication US12109245B2, “Extract of aerial parts of Maca rich in polyphenols and composition comprising same” (LABORATOIRES EXPANSCIENCE, priority 2010, dated 2024):

How the values were obtained:
Assay type in all cases: cell-based
[1] = system: Human keratinocytes (NCTC-2544 line); experiment: PMA-induced IL8 and PGE2 production by keratinocytes (ELISA)
Protocol: The cells were then treated with 0.1 μg/ml PMA (Phorbol Myristate Acetate) for 24 hours, also in the presence of MC or the references. Following the treatment, the quantities of IL8 (interleukin8) and PGE2 (prostaglandin E2) secreted were measured by means of ELISA in the culture supernatants. The results were analysed statistically using a Student's t test.

[2] = system: Normal human dermal fibroblasts; experiment: Gene expression of dermal matrix markers in fibroblasts (real-time RT-PCR); details: 5 ng/ml TGFβ1, 24 hours
Protocol: Normal human dermal fibroblasts were treated for 24 hours with 0.002% and 0.005% (w/v of active substance) Maca leaf extract (MC) or with 5 ng/ml TGFβ1 (reference).
At the end of incubation, the gene expression of various dermal matrix markers was analysed by means of real-time RT-PCR.
The results were analysed statistically by means of a one-factor ANOVA followed by a Dunnett test.

Human neutrophils = experiment: Release of elastase by neutrophils; details: 10 μg/ml Boswellic acid
Protocol: Human neutrophils were treated for 15 minutes with 0.005 and 0.01% (w/v of active substance) Maca leaf extract (MC) or with 10 μg/ml Boswellic acid (reference) and stimulated with 1 μM calcium ionophore A23187, for 10 minutes. The release of elastase was evaluated by measuring the elastase activity with a spectrophotometric method. The results were analysed statistically using a Student's t test.

Jurkat cell lines = experiment: UV-induced lipid peroxidation (C11-Fluor probe, flow cytometry); details: 100 μM BHT
Protocol: Jurkat cell lines were pre-incubated for 45 minutes in the presence of 0.005% and 0.01% (w/v of active substance) Maca leaf extract (MC) or 100 μM BHT (reference) and in the presence of the C11-Fluor fluorescent probe, specific for lipid peroxidation.
The cells were then irradiated with UVA+B and incubated for 30 minutes in the presence of MC or BHT.
At the end of incubation, the quantity of lipid peroxides was evaluated by means of a flow cytometry analysis of the fluorescence intensity (inversely proportional to oxidation).
The results were analysed were analysed statistically using a Student's t test.

Normal human adipocytes = experiment: Evaluation of lipogenesis in adipocytes ([14C]-acetate incorporation); details: 20 μM cerulenin
Protocol: Normal human adipocytes were incubated for 1 hour in the presence of 0.005% and 0.01% (w/v of active substance) Maca leaf extract or reference (20 μM cerulenin). After incubation, the radioactive marker [^14C]-acetate was added and the samples were incubated overnight.
At the end of incubation, the lipids were extracted and the incorporated radioactivity (corresponding to lipogenesis) was measured by means of liquid scintillation.
The results were analysed statistically using a Student's t test.

Q: How did the “PGE2 Inhibition” value ([1]; 10−6M indometacin, 0.1 μg/ml PMA) turn out when COc1ccc2c(c1)c(CC(=O)O)c(C)n2C(=O)c1ccc(Cl)cc1 [indometacin] was run?
A: 100%

Q: And the PGE2 production ([1]; 10−6M indometacin, 0.1 μg/ml PMA 24 hours (PMA alone 138.4 ± 10.6))?
A: 0.039 ± 0.0 ng/ml %

Q: Which results are given for “TGFβ1: 5 ng/ml TGFβ1 (reference) in the dermal fibroblast test”?
A: Collagen I gene expression, change vs control [2]: +40%; Dermatopontin gene expression, change vs control [2]: +34%; Elastin gene expression, change vs control [2]: +57%; Fibronectin gene expression, change vs control [2]: +141%; MMP1 gene expression, change vs control [2]: −78%; Collagen I gene expression (Relative Quantity) ([2]; control = 1.00): 1.40; Dermatopontin gene expression (Relative Quantity) ([2]; control = 1.00): 1.34; Elastin gene expression (Relative Quantity) ([2]; control = 1.00): 1.57; Fibronectin gene expression (Relative Quantity) ([2]; control = 1.00): 2.41; MMP1 gene expression (Relative Quantity) ([2]; control = 1.00): 0.22

Q: For C[C@H]1[C@H](C)CC[C@]2(C)CC[C@]3(C)C(=CC[C@@H]4[C@@]5(C)CC[C@@H](O)[C@](C)(C(=O)O)[C@@H]5CC[C@]43C)[C@H]12 [Boswellic acid], which “Elastase (net release; %)” value (Human neutrophils; 15 minutes, 1 μM calcium ionophore A23187 = 100) is on record?
A: 50.90 ± 7.49%

Q: And the inhibition at 10 µg/mL (Human neutrophils; Homo sapiens, Neutrophil)?
A: 49%

Q: How did the “Protection (%) against UV-induced lipid peroxidation” value (Jurkat cell lines) turn out when Cc1cc(C(C)(C)C)c(O)c(C(C)(C)C)c1 [BHT] was run?
A: 49%

Q: What about the “Lipid peroxidases (% irradiated reference)” value (Jurkat cell lines; UVA+B irradiated cells = 100) of the same compound?
A: 64%

Q: Which results are given for C[C@@H]1C[C@H]2[C@@H]3CCC4=CC(=O)C=C[C@]4(C)[C@@]3(F)[C@@H](O)C[C@]2(C)[C@@]1(O)C(=O)CO [dexamethasone]?
A: IL8 Inhibition ([1]; 10−7M dexamethasone, 0.1 μg/ml PMA): 85%; IL8 production ([1]; 10−7M dexamethasone, 0.1 μg/ml PMA 24 hours (PMA alone 50.1 ± 1.8)): 7.4 ± 0.08 ng/ml %

Q: What does the source list for C/C=C/C/C=C/CCC(=O)[C@H]1O[C@H]1C(N)=O [Cerulenin, cerulenin]?
A: Acetate incorporation (cpm) (Normal human adipocytes; control cells 32895 ± 1358): 14934 ± 671 cpm; inhibition at 20 µM (Normal human adipocytes; Homo sapiens, Adipocyte): 55%
